# Results from PubChem BioAssay (NCI).
#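 GI50: concentration for 50% inhibition of growth. TGI denotes the concentration required for complete inhibition of growth.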
# Legend:
# Experiment in all cases: DTP human tumour cell line panel, 384-well format
# 786-0 renal = tested on: 786-0 renal
# A498 renal = tested on: A498 renal
# A549 NSCLC = tested on: A549 NSCLC
# ACHN renal = tested on: ACHN renal
# BT-549 breast = tested on: BT-549 breast
# CAKI-1 renal = tested on: CAKI-1 renal
# COLO 205 colon = tested on: COLO 205 colon
# DU-145 prostate = tested on: DU-145 prostate
# EKVX NSCLC = tested on: EKVX NSCLC
# HCT-116 colon = tested on: HCT-116 colon
# HCT-15 colon = tested on: HCT-15 colon
# HL-60(TB) leukemia = tested on: HL-60(TB) leukemia
# HOP-62 NSCLC = tested on: HOP-62 NSCLC
# HOP-92 NSCLC = tested on: HOP-92 NSCLC
# HS 578T breast = tested on: HS 578T breast
# HT29 colon = tested on: HT29 colon
# IGROV1 ovarian = tested on: IGROV1 ovarian
# K-562 leukemia = tested on: K-562 leukemia
# KM12 colon = tested on: KM12 colon
# M14 melanoma = tested on: M14 melanoma
# MALME-3M melanoma = tested on: MALME-3M melanoma
# MCF7 breast = tested on: MCF7 breast
# MDA-MB-231 breast = tested on: MDA-MB-231 breast
# MDA-MB-435 melanoma = tested on: MDA-MB-435 melanoma
# MDA-MB-468 breast = tested on: MDA-MB-468 breast
# MOLT-4 leukemia = tested on: MOLT-4 leukemia
# NCI-H226 lung = tested on: NCI-H226 lung
# NCI-H23 lung = tested on: NCI-H23 lung
# NCI-H322M lung = tested on: NCI-H322M lung
# NCI-H522 lung = tested on: NCI-H522 lung
# OVCAR-3 ovarian = tested on: OVCAR-3 ovarian
# OVCAR-4 ovarian = tested on: OVCAR-4 ovarian
# OVCAR-5 ovarian = tested on: OVCAR-5 ovarian
# OVCAR-8 ovarian = tested on: OVCAR-8 ovarian
# PC-3 prostate = tested on: PC-3 prostate
# RXF 393 renal = tested on: RXF 393 renal
# SF-268 CNS = tested on: SF-268 CNS
# SF-295 CNS = tested on: SF-295 CNS
# SF-539 CNS = tested on: SF-539 CNS
# SK-MEL-2 melanoma = tested on: SK-MEL-2 melanoma
# SK-MEL-28 melanoma = tested on: SK-MEL-28 melanoma
# SK-MEL-5 melanoma = tested on: SK-MEL-5 melanoma
# SK-OV-3 ovarian = tested on: SK-OV-3 ovarian
# SN12C renal = tested on: SN12C renal
# SNB-19 CNS = tested on: SNB-19 CNS
# SNB-75 CNS = tested on: SNB-75 CNS
# SR leukemia = tested on: SR leukemia
# SW-620 colon = tested on: SW-620 colon
# T-47D breast = tested on: T-47D breast
# TK-10 renal = tested on: TK-10 renal
# U251 glioblastoma = tested on: U251 glioblastoma
# UACC-257 melanoma = tested on: UACC-257 melanoma
# UACC-62 melanoma = tested on: UACC-62 melanoma
# UO-31 renal = tested on: UO-31 renal
structure (smiles),measurement,setting,value
O=C(NCCc1ccccc1)C(c1csc2ccccc12)N(C(=O)CCl)c1ccc(-c2cnco2)cc1 (configuration not stated),GI50,786-0 renal,16.5 nM
same,TGI,786-0 renal,33.2 nM
same,GI50,A498 renal,104 nM
same,TGI,A498 renal,222 nM
same,GI50,A549 NSCLC,263 nM
same,TGI,A549 NSCLC,1580 nM
same,GI50,ACHN renal,16 nM
same,TGI,ACHN renal,30 nM
same,GI50,BT-549 breast,37.6 nM
same,TGI,BT-549 breast,131 nM
same,GI50,CAKI-1 renal,< 10 nM
same,TGI,CAKI-1 renal,19 nM
same,GI50,COLO 205 colon,1460 nM
same,TGI,COLO 205 colon,2780 nM
same,GI50,DU-145 prostate,62 nM
same,TGI,DU-145 prostate,1400 nM
same,GI50,EKVX NSCLC,15.7 nM
same,TGI,EKVX NSCLC,32.1 nM
same,GI50,HCT-116 colon,287 nM
same,TGI,HCT-116 colon,1030 nM
same,GI50,HCT-15 colon,77.6 nM
same,TGI,HCT-15 colon,216 nM
same,GI50,HL-60(TB) leukemia,21.4 nM
same,TGI,HL-60(TB) leukemia,36.4 nM
same,GI50,HOP-62 NSCLC,23.7 nM
same,TGI,HOP-62 NSCLC,68.4 nM
same,GI50,HOP-92 NSCLC,16.9 nM
same,TGI,HOP-92 NSCLC,31.1 nM
same,GI50,HS 578T breast,113 nM
same,TGI,HS 578T breast,238 nM
same,GI50,HT29 colon,127 nM
same,TGI,HT29 colon,273 nM
same,GI50,IGROV1 ovarian,18.2 nM
same,TGI,IGROV1 ovarian,34 nM
same,GI50,K-562 leukemia,78.4 nM
same,TGI,K-562 leukemia,212 nM
same,GI50,KM12 colon,483 nM
same,TGI,KM12 colon,1640 nM
same,GI50,M14 melanoma,138 nM
same,TGI,M14 melanoma,288 nM
same,GI50,MALME-3M melanoma,56.4 nM
same,TGI,MALME-3M melanoma,180 nM
same,GI50,MCF7 breast,342 nM
same,TGI,MCF7 breast,1480 nM
same,GI50,MDA-MB-231 breast,19.9 nM
same,TGI,MDA-MB-231 breast,43.3 nM
same,GI50,MDA-MB-435 melanoma,432 nM
same,TGI,MDA-MB-435 melanoma,1680 nM
same,GI50,MDA-MB-468 breast,21.5 nM
same,TGI,MDA-MB-468 breast,88.1 nM
same,GI50,MOLT-4 leukemia,20.2 nM
same,TGI,MOLT-4 leukemia,36.4 nM
same,GI50,NCI-H226 lung,193 nM
same,TGI,NCI-H226 lung,724 nM
same,GI50,NCI-H23 lung,16.5 nM
same,TGI,NCI-H23 lung,35 nM
same,GI50,NCI-H322M lung,1680 nM
same,TGI,NCI-H322M lung,3050 nM
same,GI50,NCI-H522 lung,< 10 nM
same,TGI,NCI-H522 lung,15.1 nM
same,GI50,OVCAR-3 ovarian,145 nM
same,TGI,OVCAR-3 ovarian,314 nM
same,GI50,OVCAR-4 ovarian,16.8 nM
same,TGI,OVCAR-4 ovarian,30.8 nM
same,GI50,OVCAR-5 ovarian,349 nM
same,TGI,OVCAR-5 ovarian,1310 nM
same,GI50,OVCAR-8 ovarian,19.6 nM
same,TGI,OVCAR-8 ovarian,56.6 nM
same,GI50,PC-3 prostate,110 nM
same,TGI,PC-3 prostate,245 nM
same,GI50,RXF 393 renal,10.8 nM
same,TGI,RXF 393 renal,23.2 nM
same,GI50,SF-268 CNS,70.3 nM
same,TGI,SF-268 CNS,198 nM
same,GI50,SF-295 CNS,131 nM
same,TGI,SF-295 CNS,261 nM
same,GI50,SF-539 CNS,16.5 nM
same,TGI,SF-539 CNS,34.9 nM
same,GI50,SK-MEL-2 melanoma,29.7 nM
same,TGI,SK-MEL-2 melanoma,102 nM
same,GI50,SK-MEL-28 melanoma,1430 nM
same,TGI,SK-MEL-28 melanoma,2740 nM
same,GI50,SK-MEL-5 melanoma,358 nM
same,TGI,SK-MEL-5 melanoma,1680 nM
same,GI50,SK-OV-3 ovarian,197 nM
same,TGI,SK-OV-3 ovarian,394 nM
same,GI50,SN12C renal,1040 nM
same,TGI,SN12C renal,2220 nM
same,GI50,SNB-19 CNS,1760 nM
same,TGI,SNB-19 CNS,3160 nM
same,GI50,SNB-75 CNS,19.1 nM
same,TGI,SNB-75 CNS,38 nM
same,GI50,SR leukemia,17.6 nM
same,TGI,SR leukemia,31.9 nM
same,GI50,SW-620 colon,151 nM
same,TGI,SW-620 colon,289 nM
same,GI50,T-47D breast,37.7 nM
same,TGI,T-47D breast,148 nM
same,GI50,TK-10 renal,18.6 nM
same,TGI,TK-10 renal,36.4 nM
same,GI50,U251 glioblastoma,101 nM
same,TGI,U251 glioblastoma,239 nM
same,GI50,UACC-257 melanoma,121 nM
same,TGI,UACC-257 melanoma,412 nM
same,GI50,UACC-62 melanoma,18 nM
same,TGI,UACC-62 melanoma,34 nM
same,GI50,UO-31 renal,< 10 nM
